From patent US20240000765A1, “COMBINATION TREATMENT OF LIVER DISORDERS” (Terns Pharmaceuticals, Inc., priority 2020, published 2024)
pEC50, pIC50: −log10 of the molar value.

What was measured:
THRβ = target: T1, THRβ (Homo sapiens, UniProt P10828); assay: Binding activity to the thyroxine receptor beta; settings: ratio of binding IC50
T1 sequence (P10828 1-461): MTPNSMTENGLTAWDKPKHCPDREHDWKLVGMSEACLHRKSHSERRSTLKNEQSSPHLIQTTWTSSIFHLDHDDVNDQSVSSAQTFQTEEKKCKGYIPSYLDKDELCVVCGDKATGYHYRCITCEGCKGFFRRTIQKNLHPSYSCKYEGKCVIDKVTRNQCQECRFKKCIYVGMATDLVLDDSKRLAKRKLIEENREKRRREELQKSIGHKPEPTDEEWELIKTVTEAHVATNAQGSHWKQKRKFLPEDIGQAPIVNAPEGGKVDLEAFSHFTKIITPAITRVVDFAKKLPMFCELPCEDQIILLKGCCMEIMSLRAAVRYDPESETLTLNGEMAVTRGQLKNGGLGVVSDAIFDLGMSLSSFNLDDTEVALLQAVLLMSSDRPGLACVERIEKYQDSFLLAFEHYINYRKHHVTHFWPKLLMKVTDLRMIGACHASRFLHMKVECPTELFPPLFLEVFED

THRα [1] = target: T2, THRα (Homo sapiens, UniProt P10827); assay: Binding activity to THRα; settings: read-out: IC50 THRα binding force
T2 sequence (P10827 1-410 isoform P10827-2): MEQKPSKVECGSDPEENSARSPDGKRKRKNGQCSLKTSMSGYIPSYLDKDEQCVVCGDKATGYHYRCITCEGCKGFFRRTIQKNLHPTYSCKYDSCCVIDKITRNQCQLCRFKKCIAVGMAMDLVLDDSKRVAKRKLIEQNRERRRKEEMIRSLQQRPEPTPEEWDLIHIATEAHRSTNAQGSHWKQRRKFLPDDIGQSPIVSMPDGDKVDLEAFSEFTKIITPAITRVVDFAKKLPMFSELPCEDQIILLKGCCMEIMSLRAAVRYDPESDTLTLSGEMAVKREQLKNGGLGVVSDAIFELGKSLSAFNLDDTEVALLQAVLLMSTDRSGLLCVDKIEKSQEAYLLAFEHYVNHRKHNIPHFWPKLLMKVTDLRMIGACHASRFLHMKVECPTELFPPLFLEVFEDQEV

THRα [2] = target: T2, THRα; assay: Agonistic activity toward THRα; assay type: biochemical
[3] = Pharmacokinetic evaluation in rats, intragastric infusion; assay type: in vivo; settings: SD rats, intragastric 2 mg/kg
Description: Drug Preparation: a certain amount of the drug was taken and added into a 2% Klucel LF+0.1% Tween 80 aqueous solution, to prepare a clear solution or a uniform suspension.
Dosage: SD rats were fasted overnight and given the drug by intragastric infusion at an administrated dose of 2 mg/kg and an administrated volume of 10 mL/kg each.
Operation: rats were dosed by intragastric infusion with the compounds. […] The heparinized sample tubes were then stored at −20° C., and the rats were allowed to eat food 2 h after the dosage.
Determination of contents of the compounds to be tested in the plasma of rats after intragastric infusion of the drugs at different concentrations: the plasma samples were thawed at room temperature, 50 μL each was taken and added into 130 μL of an internal standard working solution (1000 ng/mL, acetonitrile, tolbutamide), and the mixture was whirled for about 1 min and then centrifugated at 4° C. and 13000 rpm for 10 min. 50 μL of the supernatant was taken and mixed with 100 μL of 50% acetonitrile water, and then introduced for LC/MS/MS analysis.

mouse NASH model = assay: Mouse NASH model (high fat diet + CCl4), Compound 2; assay type: in vivo, C57BL/6J mice
Description: C57BL/6J mice were fed a high fat diet for 10 weeks to induce obesity (>38 g BW). Obese mice were injected intraperitoneally (i.p.) twice a week for four weeks with 0.5 μl/g 25% CCl4 (formulated in olive oil) to induce fibrosis, and one group of normal BW mice were injected i.p. twice a week for four weeks with olive oil to serve as a healthy control. During the same dosing period, obese mice were fed orally once a day for 28 days with vehicle or varying doses of Compound 2. On CCl4 dosing days, CCl4 was administered at 4 hours post compound or vehicle dosing. On day 27, all animals were fasted for about 16 hours before terminal euthanasia. On day 28, all animals were sacrificed and various biological parameters were analyzed. Total body, liver, heart and brain weight were measured and changes in liver and heart weight were normalized using brain weight. […] Liver tissue histology was analyzed for effects of Compound 2 on steatosis, inflammation and fibrosis. […] Liver samples were collected for whole transcriptome analysis by RNA sequencing (RNAseq). RNAseq library (n=5 per group) preparation and sequencing was performed using Illumina standard protocols. Alignment of sequencing reads was performed using STAR aligner software and read counts were estimated using RSEM. Differentially expressed genes (compared to vehicle-treated NASH control mice) were determined using EdgeR software. Gene ontology analysis was performed using Advaita software with fold-change and adjusted p-value cutoffs of >1.5 and <0.05, respectively. Gene ontologies were derived from the Gene Ontology Consortium database (2019 Apr. 26) (Ashbumer et al., Gene ontology: Tool for the unification of biology. Nature Genetics 25(1): 25-9 (2000); Gene Ontology Consortium, Creating the Gene Ontology Resource: Design and Implementation. Genome Research 11: 1425-1433 (2001)).

N#Cc1nn(-c2cc(Cl)c(Oc3n[nH]c(=O)c4ccccc34)c(Cl)c2)c(=O)[nH]c1=O [Compound 2]
THRα/β selectivity (factor) (THRβ): >58.8
pIC50 (THRα [1]): < 5.00
pEC50 (THRα [2]): 5.40
Curve area [3]: 24790 ± 3704 ng·h/mL
Peak blood drug concentration [3]: 2007 ± 106 ng/mL
Time to peak [3]: 4.67 ± 1.15 h
liver fibrosis (histology) (mouse NASH model; 3 and 10 mpk): significantly reduced
liver steatosis (histology) (mouse NASH model; all doses tested): significantly reduced
serum ALT (mouse NASH model; all doses tested): significantly reduced
serum total cholesterol (mouse NASH model; all doses tested): significantly reduced
serum triglycerides (mouse NASH model; all doses tested): significantly reduced
expression of genes associated with collagen extracellular matrix and hepatic stellate cell activation relative to NASH control (mouse NASH model; liver RNAseq): reducing their expression levels
heart/brain weight (mouse NASH model; oral once a day, 28 days): no effect
liver inflammation (histology) (mouse NASH model; oral once a day, 28 days): trend in inflammation reduction
liver/brain weight (mouse NASH model; oral once a day, 28 days): significantly reduced
total body weight (mouse NASH model; oral once a day, 28 days): no effect
